Article PMC7733455, “A novel multistage antiplasmodial inhibitor targeting Plasmodium falciparum histone deacetylase 1” (Cell Discovery, 2020)

How the values were obtained:
293T cells = test: In vitro cytotoxicity analysis (CellTiter-Glo), 293T; settings: for EC50: read-out: Cytotoxicity EC50, 293T, 72 h, CellTiter-Glo
Description: (§1) In all, 1% DMSO was used as a negative control. The inhibition of each drug was normalized to that of the DMSO control. EC50 was calculated by GraphPad Prism. Three independent assays with two technical replicates each time were conducted in this experiment.

HepG2 cells = test: In vitro cytotoxicity analysis (CellTiter-Glo), HepG2; settings: for EC50: read-out: Cytotoxicity EC50, HepG2, 72 h, CellTiter-Glo
Description: as §1

P. falciparum Dd2 = test: 3-day SYBR Green I GIA, multidrug-resistant strain Dd2; assay type: cell-based, Plasmodium falciparum; settings: 3-day SYBR Green I GIA, multidrug-resistant strain Dd2; read-out: Antiplasmodial activity EC50, Dd2
Description: (§2) A 3-day SYBR Green I inhibition EC50 assay was performed as described previously. Briefly, highly synchronized ring-stage parasites by 5% sorbitol (1% parasitemia and 2% hematocrit) were incubated in a 96-well plate with compounds in a total volume of 200 μL. […] The parasites were cultured for 72 h before SYBR Green I staining as described above. The EC50 was calculated by GraphPad Prism. DHA was used as a positive control, and the final concentration of DMSO was 1%.

P. falciparum 3D7 = test: 3-day SYBR Green I growth inhibition assay (GIA), strain 3D7; assay type: cell-based, Plasmodium falciparum; settings: 3-day SYBR Green I GIA, drug-sensitive strain 3D7; read-out: Antiplasmodial activity EC50, 3D7
Description: as §2

SMILES	EC50 (P. falciparum Dd2) [nM]	EC50 (P. falciparum 3D7) [nM]	Selectivity index for 293T (EC50 293T/EC50 3D7) (293T cells)	EC50 (293T cells) [nM]	Selectivity index for HepG2 (EC50 HepG2/EC50 3D7) (HepG2 cells)	EC50 (HepG2 cells) [nM]
Cl.Cn1cc(CN2CCN(c3ncc(C(=O)NO)cn3)CC2)c2ccccc21 [JX21003]	15.3 ± 0.4	10.9 ± 0.8	4	47 ± 21	4	44 ± 7
Cl.Cn1cc(CNC2CCN(c3ncc(C(=O)NO)cn3)CC2)c2ccccc21 [JX21004]	61 ± 0.4	32.9 ± 0.9	16	519 ± 112	9	294 ± 57
CN(Cc1cn(C)c2ccccc12)C1CCN(c2ncc(C(=O)NO)cn2)CC1.Cl [JX21005]	108 ± 5.6	73.6 ± 3.5	27	1980 ± 407	9	643 ± 36
Cl.Cn1cc(CN2CCC(CNc3ncc(C(=O)NO)cn3)CC2)c2ccccc21 [JX21008]	23.6 ± 0.4	13.1 ± 0.6	19	253 ± 89	52	688 ± 10
Cl.Cn1cc(CN2CCC3(CC2)CCN(c2ncc(C(=O)NO)cn2)CC3)c2ccccc21 [JX21010]	31.1 ± 4.6	23.4 ± 2.4	94	2210 ± 226	39	904 ± 18
Cl.Cn1cc(CN2CCC3(CC2)CN(c2ncc(C(=O)NO)cn2)C3)c2ccccc21 [JX21013]	44 ± 10	79.2 ± 2.4	> 126	> 10000	> 126	> 10000
Cl.Cn1cc(CN2CCC3(CCCN3c3ncc(C(=O)NO)cn3)CC2)c2ccccc21 [JX21019]	38.7 ± 0.6	45.2 ± 1.2	22	1000 ± 208	19	875 ± 70
Cl.Cn1cc(CNC2CCC(Nc3ncc(C(=O)NO)cn3)CC2)c2ccccc21 (stereo not shown) [JX21022]	125 ± 4.5	151 ± 2.7	> 66	> 10000	> 66	> 10000
Cl.Cn1cc(CN2CCC3(CCN(c4ncc(C(=O)NO)cn4)C3)C2)c2ccc(Cl)cc21 (stereo not shown) [JX21102]	2.4 ± 0.2	4.2 ± 0.7		1670 ± 110	123	514 ± 22

Now from value to compound, other results behind:

EC50 (P. falciparum Dd2) [nM]	EC50 (P. falciparum 3D7) [nM]	SMILES	Selectivity index for 293T (EC50 293T/EC50 3D7) (293T cells)	EC50 (293T cells) [nM]	Selectivity index for HepG2 (EC50 HepG2/EC50 3D7) (HepG2 cells)	EC50 (HepG2 cells) [nM]
28.6 ± 1.8	17.8 ± 0.5	Cl.O=C(NO)c1cnc(N2CCC3(CCN(Cc4ccccc4)C3)C2)nc1 (stereo not shown) [JX21105]	101	1790 ± 37	68	1200 ± 68
3.6 ± 0.08	2 ± 0.9	Cl.Cn1cc(CN2CCC3(CCN(c4ncc(C(=O)NO)cn4)C3)C2)c2ccc(F)cc21 (stereo not shown) [JX21106]	198	402 ± 96	88	178 ± 4
35.4 ± 1.3	49.7 ± 1.1	Cl.O=C(NO)c1cnc(N2CCC3(CCN(Cc4cccs4)C3)C2)nc1 (stereo not shown) [JX21110]	91	4540 ± 323	34	1690 ± 163
34 ± 2.5	45.5 ± 3.3	Cl.O=C(NO)c1cnc(N2CCC3(CCN(Cc4ccco4)C3)C2)nc1 (stereo not shown) [JX21111]	50	2260 ± 286	24	1100 ± 18
	23	O=C(NO)c1cnc(N2CCN(S(=O)(=O)c3ccc4ccccc4c3)CC2)nc1 [R306465, reference compound]	287	6600	38	877
